From PMC7734798 (ACS Medicinal Chemistry Letters, 2020)

How the values were obtained:
[1] = Rat plasma stability assay (LC-DAD-MS/MS); type: in vitro ADME; details: 1 h of incubation at 37 °C
Method: Our aim was to develop plasma-stable conjugates that would be hydrolyzed in the brain. Selective localized hydrolysis of conjugates 1 and 2 would permit a CNS-targeted profile and less side effects. Thus, plasma stability is an important pharmacokinetic prerequisite for 1 and 2. As reported by stability assays performed by LC-DAD-MS/MS analysis (Figure 3), conjugates 1 and 2 are stable for more than 85% after 1 h of incubation at 37 °C in rat plasma. […] The mean plasma remaining fraction of the two conjugates after 1 h of incubation was compared by means of t test and a statistically relevant difference (p < 0.01) was observed.
(§1) Velp (Usmate, Italy) RX3 vortex mixer and an Elma (Singen, Germany) Sonic T310 Trans ultrasonic […]
Chromatographic runs were obtained on an Agilent (Palo Alto, Ca, US) ZORBAX SB-C18 column (50 × 2.1 mm I.D., 3.5 µm particles), maintained at room temperature and equipped with a guard column. […] For compound stability and hydrolysis studies, multiple reaction monitoring (MRM) acquisition mode was set up for both compounds 1 and 2, by flow-injection analysis directly in the MS source, in order to optimize ionization parameters and to select two exclusive MRM m/z transitions for each analyte, exploited for quantitative purposes and for qualitative confirmation, respectively. […]

[2] = Brain stability / hydrolysis kinetics in rat brain homogenate (LC-DAD-MS/MS); type: in vitro ADME; details: 37 °C; for hydrolysis in rat brain homogenate in presence of FAAH inhibitor PF-3845: 5 μM PF-3845; for time to total disappearance of starting compound in rat brain homogenate / half-life at 1 µg/mL: absence of FAAH inhibitor; for half-life at 1 µg/mL: rat, brain homogenate
Method: We anticipated that, once they entered into the brain, conjugates would be hydrolyzed to the individual components by intracellular metabolic enzymes processing fatty acid derivatives (e.g., FAAH).[9],[17] Thus, the stability of 1 and 2 was evaluated by LC-DAD-MS/MS analysis of rat brain homogenate incubated with the conjugates, which was sampled at regular intervals over 1 h. To obtain initial clues on the implication of FAAH enzymes in hydrolysis, the assays were performed in the absence and presence of 5 μM FAAH inhibitor PF-3845.[9]
as §1
Chromatographic runs were obtained on an Agilent (Palo Alto, Ca, US) ZORBAX SB-C18 column (50 × 2.1 mm I.D., 3.5 µm particles), maintained at room temperature and equipped with a guard column. The mobile phase was a mixture of 0.1% aqueous formic acid (A) and acetonitrile (B), flowing at a constant rate of 0.3 mL/min. The mobile phase was set in isocratic mode with A:B ratio of (65:35, V:V); the two components of the mobile phase were filtered through Sartorius (Göttingen, Germany) membrane filters (47 mm diameter, polyamide, 0.2 µm pore size) and degassed by an ultrasonic bath. The injection volume was 10 μL. For compound purity, Total Ion Current (TIC) mode was used and DAD chromatograms were checked at 200 nm and 540 nm. For compound stability and hydrolysis studies, multiple reaction monitoring (MRM) acquisition mode was set up for both compounds 1 and 2, by flow-injection analysis directly in the MS source, in order to optimize ionization parameters and to select two exclusive MRM m/z transitions for each analyte, exploited for quantitative purposes and for qualitative confirmation, respectively.
Sample analysis and method validation […]
For compound stability and hydrolysis studies, after setting up MRM acquisition mode for both 1 and 2 as described previously, the LC-MS/MS method was coupled to an optimized sample preparation protocol to be applied to biological matrices, namely rat plasma and rat brain homogenate. Briefly, for both matrices, 1-mL sample was brought to 37±0.5°C by means of a thermostatted water bath.
Then, 50µL of analyte working solution was added to the matrix sample in order to obtain a final […]
concentration of 1 µg/mL. […]
plasma) and hydrolysis (in brain homogenate). Then, at regular intervals (5, 10, 15, 20, 25, 30, 45, 60 min) a 50-µL aliquot was sampled from the vial, added with 50 µL of ice-cold ACN and centrifuged for 5 min at 4500 rpm at 5°C. The resulting supernatant was subjected to an original miniaturized extraction procedure, based on microextraction by packed sorbent (MEPS), in order to purify the samples from potential interfering signals deriving from the matrices. The solution obtained after MEPS procedure was directly injected into the LC-MS/MS system under the optimized conditions previously described. Compound quantitation was obtained by integrating peak areas obtained from sample analysis and by interpolation on the linearity curve of each analyte. All analyses were carried out in triplicate and results were then expressed as % of remaining compound with respect to that assessed at t0 (100%), plotted against the defined time points.
In order to be applied for stability and hydrolysis studies, the MEPS-LC-MS/MS method was fully validated on both plasma and brain homogenate samples fortified with known amounts of compounds 1 and 2, pretreated and analyzed right after the addition of analyte working solutions. Method validation was performed according to the main international guidelines [ICH Harmonised Tripartite Guideline. Validation of Analytical Procedures: Text and Methodology Q2(R1); International Conference on Harmonisation of Technical] in terms of linearity (including limit of detection, LOD and limit of quantitation, LOQ), precision, accuracy, extraction yield and matrix effect.

SMILES | percentage remaining upon incubation in rat plasma [1] | hydrolysis in rat brain homogenate in presence of FAAH inhibitor PF-3845 [2] | time to total disappearance of starting compound in rat brain homogenate [2] | half-life at 1 µg/mL [2]
CC/C=C\C/C=C\C/C=C\CCCCCCCC(=O)NCCNC(=O)C(CCC)CCC [compound 1] | 89% | blocks the hydrolysis of both 1 and 2 to a large extent | ≤ 1 h | ~23 min
CC/C=C\C/C=C\C/C=C\CCCCCCCC(=O)NCCOC(=O)C(CCC)CCC [compound 2] | 85% | blocks the hydrolysis of both 1 and 2 to a large extent | ≤ 1 h | ~16 min
